A short description of assay [1]: Body weight of obese mice fed a high-fat diet (HFD) during treatment. The format is in vivo, C57BL/6J mice. How it is done: (§1) All studies conducted in mice utilized C57BL/6J mice maintained at the Institut Pasteur de Montevideo Animal facility (UBAL). Experimental protocols were approved by the Institutional Animal Care and Use Committee of the Institut Pasteur de Montevideo (CEUA, Protocol numbers 003-19 and 006-19). Studies were performed according to the methods approved in the protocols. All the experiments were performed on adult male mice (10-12 weeks of age) and were conducted at either 22° C. with free access to food and water. Unless specified, mice were housed at 22° C. in groups of five.
High-fat diet (HFD) feeding: Male C57BL/6J mice housed at 22° C. were fed a high-fat diet (42% fat and 0.25% cholesterol, AlN93G, LabDiet, USA), starting at 12 weeks of age and for a duration of 5 weeks prior to beginning administration of any active pharmaceutical ingredients. After the onset of the treatment, HFD ad libitum was maintained until the end of the experiments.
Drug delivery: SANA was administered orally (PO) by mixing with the food (50, 100, or 200 mg/kg/day), or subcutaneously (SC, 10, 15, or 20 mg/kg/day in 100 mM phosphate buffer, pH 6.5). In all cases the vehicle was used as control. Liraglutide (Novo Nordisk, Denmark) was administered daily, subcutaneously (SC, 0.2 mg/kg/day). Semaglutide (Ozempic®, Novo Nordisk, Denmark) was administered subcutaneously (SC, 2 nmol/kg/day or 40 mg/kg every 3 days).
Mice were fed with a high fat diet (HFD) for 5 weeks prior to the initiation of treatment, and the high-fat diet continued during a 2-week treatment period. FIGS. 1A-1B show graphs of average mouse weight without treatment (HFD, n=8), treatment with SANA (HFD+SANA, 200 mg/kg/day, n=9), treatment with liraglutide (HFD+LIRA, 0.2 mg/kg/day, n=8), or treatment with a combination of SANA (200 mg/kg/day) and liraglutide (0.2 mg/kg/day) (HFD+SANA+LIRA, n=10).
FIGS. 3A and 3B show graphs of the average mouse weight without treatment (n=9), treatment with SANA (15 mg/kg/day, n=8), treatment with semaglutide (2 nmol/kg/day, n=10), or treatment with a combination of SANA (15 mg/kg/day) and semaglutide (2 nmol/kg/day) (n=10). Mice were fed with a high fat diet (HFD) for 5.5 weeks prior to the initiation of treatment, and the high-fat diet continued during the 3-week treatment period. Referring to FIGS. 3A and 3B, obese mice administered SANA alone (HFD+SANA) or semaglutide alone (HFD+SEMA) experienced an average weight loss of about 5% after three weeks.
In a separate experiment, different doses of subcutaneous semaglutide alone were compared to treatment with oral administration of SANA alone, and to treatment with a combination of oral SANA and two different doses of subcutaneous semaglutide. […]

Assay [2] is described as follows: Cumulative food intake of mice fed a high-fat diet (HFD). The format is in vivo, C57BL/6J mice. The following applies: SANA 200 mg/kg/day PO continued after 1.5 weeks of concomitant SANA plus semaglutide 10 nmol/kg/day; FIG. 6D. How it is done: as §1
High-fat diet (HFD) feeding: Male C57BL/6J mice housed at 22° C. were fed a high-fat diet (42% fat and 0.25% cholesterol, AlN93G, LabDiet, USA), starting at 12 weeks of age and for a duration of 5 weeks prior to beginning administration of any active pharmaceutical ingredients. After the onset of the treatment, HFD ad libitum was maintained until the end of the experiments. […]
A higher dose of SANA was then assessed for its ability to prevent the regain of weight in mice following discontinuation of GLP-1 treatment. […] The weight regain of the mice was monitored for another 1.5-6.5 weeks. *, **, ***, #, and ## show statistically significant differences, p<0.05, p<0.01, p<0.001, p<0.05, and p<0.01, respectively. […]

Assay [3] is described as follows: Blood glucose measurements: fasting/basal glucose and glucose tolerance test (GTT) in HFD mice. The following applies: SANA 200 mg/kg/day PO after discontinuation of concomitant SANA plus semaglutide, versus semaglutide 10 nmol/kg/day alone; FIGS. 6E, 6F. Format: in vivo, C57BL/6J mice. How it is done:
Blood glucose measurements: Mice were kept in fasting for 16 h before fasting glucose measurement and glucose tolerance tests (GTT). When performing GTT, mice were injected (IP) with 1.5 g/kg body weight of glucose solution. Plasma glucose concentrations were measured from blood obtained from the tail using a hand-held glucometer (Accu-Chek, Roche).
Glucose tolerance (“GTT”), basal glucose, and glucose Area Under the Curve (“AUC”) were also measured following two weeks of treatment, and the results are presented graphically in FIGS. 2A, 2B, and 2C with * indicating a statistically significant difference, p<0.05.
A higher dose of SANA was then assessed for its ability to prevent the regain of weight in mice following discontinuation of GLP-1 treatment. Referring to FIGS. 6B and 6C, mice were fed a high-fat diet for a period of 5.5 weeks, and then were untreated (HFD), treated with GLP-1 agonist (semaglutide, 10 nmol/kg/day—SC), or treated with semaglutide+SANA for a period of 1.5 weeks, at which time, the semaglutide treatment was ceased and the groups were treated only with SANA (200 mg/kg/day, PO). The weight regain of the mice was monitored for another 1.5-6.5 weeks. *, **, ***, #, and ## show statistically significant differences, p<0.05, p<0.01, p<0.001, p<0.05, and p<0.01, respectively. […]

A short description of assay [4]: Serum non-esterified fatty acids (NEFA) in HFD mice. Format: in vivo, C57BL/6J mice. The conditions noted are these: 4 weeks; SANA 200 mg/kg/day, semaglutide 2 nmol/kg/day, alone or combined; FIG. 7B. As to the method: As described in Example 2A above, mice were fed with a high fat diet (HFD) for 5.5 weeks prior to the initiation of treatment, and the high-fat diet continued during the 4 week treatment period. Different doses of semaglutide were provided, either alone or in combination with SANA, and compared to SANA alone and untreated mice alone. Specifically, mice were either untreated (HFD) (n=5), or treated with SANA (200 mg/kg/day, n=5), semaglutide (0.25 nmol/kg/day, n=5), semaglutide (2 nmol/kg/day, n=4), a combination of SANA (200 mg/kg/day) and semaglutide (0.25 nmol/kg/day) (n=5), or a combination of SANA (200 mg/kg/day) and semaglutide (2 nmol/kg/day) (n=3).
Next, different doses of SANA were tested, either alone or in combination with semaglutide, and compared to treatment with semaglutide alone and untreated mice. Specifically, as described in Example 2A above, mice were fed with a high fat diet (HFD) for 5.5 weeks prior to the initiation of treatment, and the high-fat diet continued during the 1.5-week treatment period. […]

Assay [5] in a line: Weight regain of HFD mice after discontinuation of treatment (rebound effect). The format is in vivo, C57BL/6J mice. As to the method: Comparison of weight regain in mice following discontinuation of treatment with SANA or a GLP-1 agonist was measured in order to quantify the “rebound effect” as a result of discontinuing treatment. Mice were fed a high-fat diet for a period of 5 weeks, and were then untreated (HFD), treated with GLP-1 agonist (liraglutide, 0.2 mg/kg/day SC daily injection, LIRA), or treated with SANA (200 mg/kg/day PO) for a period of nine weeks. The high-fat diet was continued during the treatment period. Following week 9, all treatment was discontinued and weight regain in the mice was monitored through week 14.
The ability of SANA to prevent the regain of weight in mice following discontinuation of GLP-1 treatment was also assessed. Mice were fed a high-fat diet for a period of 5.5 weeks, and were then untreated (HFD), treated with GLP-1 agonist (semaglutide, 40 mg/kg s.c. every 3 days), or treated with semaglutide+SANA (10 mg/kg/day) for a period of 2.5 weeks. At week 8, except for the control group (HFD) all groups were treated only with SANA (10 mg/kg/day, s.c.).
A higher dose of SANA was then assessed for its ability to prevent the regain of weight in mice following discontinuation of GLP-1 treatment. […] The weight regain of the mice was monitored for another 1.5-6.5 weeks. *, **, ***, #, and ## show statistically significant differences, p<0.05, p<0.01, p<0.001, p<0.05, and p<0.01, respectively.

The conditions of assay [6]: cited from earlier work.
The mark [7] stands for this setting: obese mice treated with SANA, WO2020058917A1 / US2023346728A1.

For `O=C(O)c1cc(/C=C/[N+](=O)[O-])ccc1O` [SANA, 5-(2-nitroethenyl) salicylic acid], the “average reduction in weight during the treatment period” value in assay [1] (HFD mice, nine weeks, liraglutide 0.2 mg/kg/day SC or SANA 200 mg/kg/day PO, FIG. 5) is 15%. Further, in assay [1] (obese HFD mice, after four weeks, oral SANA 200 mg/kg/day, subcutaneous semaglutide 2 nmol/kg/day, alone or concomitant, FIGS. 3E, 3F), the average weight loss entry is “about 5%”. Further, the average weight loss result in assay [1] (obese HFD mice, after three weeks, SANA 15 mg/kg/day, semaglutide 2 nmol/kg/day, alone or concomitant, FIGS. 3A, 3B) was “about 5%”. Moreover, the weight loss result in assay [1] (obese HFD mice, after two weeks, SANA 200 mg/kg/day, liraglutide 0.2 mg/kg/day, alone or concomitant, FIGS. 1A, 1B) is recorded as “about 10%”. The “cumulative food intake after discontinuation of semaglutide” value in assay [2] was “remained lower”. In assay [3], the “fasting glucose, lower” value is on record as 55%. The “drop in serum NEFA levels” value in assay [4] is listed as “little to no change”. Moreover, the “regain of weight after discontinuation of semaglutide” value in assay [5] (SANA 10 mg/kg/day s.c. after 2.5 weeks of semaglutide (40 mg/kg s.c. every 3 days) alone or SANA plus semaglutide, FIG. 6A) was “prevented regain of weight”. Further, in assay [5] (SANA 200 mg/kg/day PO after 1.5 weeks of semaglutide (10 nmol/kg/day SC) alone or SANA plus semaglutide, FIGS. 6B, 6C), the “regain of weight after discontinuation of semaglutide” value is recorded as “prevented regain of weight”. Moreover, the “thermogenesis and beiging of white adipose tissue” value in assay [6] (mice under diet-induced obesity (DIO), by activating creatine-dependent thermogenesis) is “stimulates thermogenesis and beiging of white adipose tissue”. Moreover, in assay [6] (setting [7]), the fat accretion result is “resistance to fat accretion”, the glucose intolerance result is given as “improved glucose intolerance”, the liver steatosis entry was “absence of liver steatosis” and the “response to cold challenge” value is “improved response to cold challenge”.

(Values after US20250367218A1, “METHODS OF TREATING METABOLIC DISORDERS AND COMBINATION PRODUCTS FOR USE IN THE SAME” (INSTITUT PASTEUR DE MONTEVIDEO, priority 2024, published 2025).)
